Measured values reported in US6355799B1, “Substituted benzene compounds, process for their preparation, and herbicidal and defoliant compositions containing them” (ISK Americas Incorporated, priority 1997, dated 2002).

Columns and labels:
Type in all cases: in vivo
[1] = system: field corn (Zea mays L., var. Dekalb 535, CORN); test: Post-emerge test, crop safety; conditions: post-emerge, 14 days after application, rating scale 0-100
Procedure, shortened: (§1)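 Visual ratings on a 0-100 scale (0 no damage, 100 all plants dead) were taken at 14 days after treatment. Rates of 15-1000 g ai/ha in acetone, 187 l/ha, were sprayed onto soil one day after planting (pre-emerge) or onto 2-3 leaf plants with 0.25% v/v surfactant (post-emerge).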

[2] = system: upland rice (Oryza sp., var. Tebonnet, RICE); test: Post-emerge test, crop safety; conditions: post-emerge, 14 days after application, rating scale 0-100
Procedure, shortened: as §1

[3] = system: redroot pigweed (Amaranthus retroflexus, AMARE); test: Pre-emerge test, greenhouse herbicide activity screening; conditions: pre-emerge, 14 days after application
Procedure, shortened: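 Herbicidal damage is scored 0 (none) to 100 (complete plant death) two weeks after a simulated field spray. Rates span 15–1000 g ai/ha, delivered in acetone at 187 l/ha. For post-emergence treatments, plants have 2–3 leaves and the spray carries 0.25% v/v non-ionic surfactant.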

[4] = system: ivyleaf morningglory (Ipomoea hederacea, IPOHE); test: Post-emerge test, greenhouse herbicide activity screening; conditions: post-emerge, 14 days after application, rating scale 0-100
Procedure, shortened: (§2)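 Plants grown in 10 cm pots of sandy loam mix received acetone-dissolved compounds through a moving flat-fan nozzle. Doses ranged from 15 to 1000 g ai/ha. Pre-emerge pots were seeded one day earlier, post-emerge pots 8–21 days earlier. Fourteen days on, each pot was graded 0–100 for damage.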

[5] = system: johnsongrass (Sorghum halepense, SORHA); test: as above; conditions: post-emerge, 14 days after application, rating scale 0-100
Procedure, shortened: as §2

[6] = system: velvetleaf (Abutilon theophrasti, ABUTH); test: as above; conditions: post-emerge, 14 days after application, rating scale 0-100
Procedure, shortened: as §2

[7] = system: sicklepod (Cassia obtusifolia, CASOB); test: as above; conditions: post-emerge, 14 days after application, rating scale 0-100
Procedure, shortened: as §2

[8] = system: large crabgrass (Digitaria sanguinalis, DIGSA); test: as above; conditions: post-emerge, 14 days after application, rating scale 0-100
Procedure, shortened: as §2

[9] = system: barnyardgrass (Echinochloa crus-galli, ECHCG); test: as above; conditions: post-emerge, 14 days after application, rating scale 0-100
Procedure, shortened: as §2

[10] = system: lambsquarters (Chenopodium album, CHEAL); test: as above; conditions: post-emerge, 14 days after application, rating scale 0-100
Procedure, shortened: as §2

[11] = system: redroot pigweed (Amaranthus retroflexus, AMARE); test: as above; conditions: post-emerge, 14 days after application
Procedure, shortened: as §2

[12] = system: green foxtail (Setaria viridis, SETVI); test: as above; conditions: post-emerge, 14 days after application, rating scale 0-100
Procedure, shortened: as §2

[13] = system: ivyleaf morningglory (Ipomoea hederacea, IPOHE); test: Pre-emerge test, greenhouse herbicide activity screening; conditions: pre-emerge, 14 days after application
Procedure, shortened: as §1

[14] = system: johnsongrass (Sorghum halepense, SORHA); test: as above; conditions: pre-emerge, 14 days after application
Procedure, shortened: as §1

[15] = system: velvetleaf (Abutilon theophrasti, ABUTH); test: as above; conditions: pre-emerge, 14 days after application
Procedure, shortened: as §1

[16] = system: sicklepod (Cassia obtusifolia, CASOB); test: as above; conditions: pre-emerge, 14 days after application
Procedure, shortened: as §1

[17] = system: large crabgrass (Digitaria sanguinalis, DIGSA); test: as above; conditions: pre-emerge, 14 days after application
Procedure, shortened: as §1

[18] = system: barnyardgrass (Echinochloa crus-galli, ECHCG); test: as above; conditions: pre-emerge, 14 days after application
Procedure, shortened: as §1

[19] = system: lambsquarters (Chenopodium album, CHEAL); test: as above; conditions: pre-emerge, 14 days after application
Procedure, shortened: as §1

[20] = system: green foxtail (Setaria viridis, SETVI); test: as above; conditions: pre-emerge, 14 days after application
Procedure, shortened: as §1

[21] = system: field corn (Zea mays L., var. Dekalb 535, CORN); test: Pre-emerge test, crop safety; conditions: pre-emerge, 14 days after application; for phytotoxicity rating CORN (crop damage): scale 0-100; for phytotoxicity rating CORN: rating scale 0-100
Procedure, shortened: (§3)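 Rating: 0–100 visual injury, 14 DAA. Application: acetone, 187 l/ha, 15–1000 g ai/ha, flat-fan track sprayer with nozzle 40–45 cm above soil or canopy. Post-emerge runs used 0.25% v/v surfactant on 2–3 leaf plants.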

[22] = system: upland rice (Oryza sp., var. Tebonnet, RICE); test: Pre-emerge test, crop safety; conditions: pre-emerge, 14 days after application; for phytotoxicity rating RICE (crop damage): scale 0-100; for phytotoxicity rating RICE: rating scale 0-100
Procedure, shortened: as §3

[23] = 250 g ai/ha, rating scale 0-100

`CCOC(=O)C(C)Oc1ccc(-n2c(=O)cc(C(F)(F)F)n(C)c2=O)c(NC(=O)c2ccc3ccccc3c2)c1` (stereo not shown) [2-146] was tested, and the “CORN phytotoxicity rating (crop damage)” value ([1]; 63 g ai/ha) was 10, the “CORN phytotoxicity rating (crop damage)” value ([1]; 250 g ai/ha) was 5 and the “RICE phytotoxicity rating (crop damage)” value ([2]; 63 g ai/ha) was 10. The “RICE phytotoxicity rating (crop damage)” value ([2]; 250 g ai/ha) was 10, the “phytotoxicity rating AMARE” value ([3]; 63 g ai/ha, scale 0-100) was 30 and the “phytotoxicity rating AMARE” value ([3]; 250 g ai/ha, scale 0-100) was 80. The IPOHE phytotoxicity rating ([4]; 63 g ai/ha) was 40, the IPOHE phytotoxicity rating ([4]; 250 g ai/ha) was 50 and the SORHA phytotoxicity rating ([5]; 63 g ai/ha) was 0. The SORHA phytotoxicity rating ([5]; 250 g ai/ha) was 0, the ABUTH phytotoxicity rating ([6]; 63 g ai/ha) was 70 and the ABUTH phytotoxicity rating ([6]; 250 g ai/ha) was 75. It also gave a CASOB phytotoxicity rating ([7]; 63 g ai/ha) of 20, a CASOB phytotoxicity rating ([7]; 250 g ai/ha) of 50 and a DIGSA phytotoxicity rating ([8]; 63 g ai/ha) of 0. It also gave a DIGSA phytotoxicity rating ([8]; 250 g ai/ha) of 0, an ECHCG phytotoxicity rating ([9]; 63 g ai/ha) of 0 and an ECHCG phytotoxicity rating ([9]; 250 g ai/ha) of 0. It also gave a CHEAL phytotoxicity rating ([10]; 63 g ai/ha) of 30, a CHEAL phytotoxicity rating ([10]; 250 g ai/ha) of 40 and an AMARE phytotoxicity rating ([11]; 63 g ai/ha, rating scale 0-100) of 30. The AMARE phytotoxicity rating [11, 23] was 30, the SETVI phytotoxicity rating ([12]; 63 g ai/ha) was 0 and the SETVI phytotoxicity rating ([12]; 250 g ai/ha) was 0. For the same compound, the “phytotoxicity rating IPOHE” value ([13]; 63 g ai/ha, scale 0-100) was 40, the “phytotoxicity rating IPOHE” value ([13]; 250 g ai/ha, scale 0-100) was 20 and the “phytotoxicity rating SORHA” value ([14]; 63 g ai/ha, scale 0-100) was 0. For the same compound, the “phytotoxicity rating SORHA” value ([14]; 250 g ai/ha, scale 0-100) was 0, the “phytotoxicity rating ABUTH” value ([15]; 63 g ai/ha, scale 0-100) was 70 and the “phytotoxicity rating ABUTH” value ([15]; 250 g ai/ha, scale 0-100) was 10. The “phytotoxicity rating CASOB” value ([16]; 63 g ai/ha, scale 0-100) was 20, the “phytotoxicity rating CASOB” value ([16]; 250 g ai/ha, scale 0-100) was 0 and the “phytotoxicity rating DIGSA” value ([17]; 63 g ai/ha, scale 0-100) was 0. The “phytotoxicity rating DIGSA” value ([17]; 250 g ai/ha, scale 0-100) was 0, the “phytotoxicity rating ECHCG” value ([18]; 63 g ai/ha, scale 0-100) was 0 and the “phytotoxicity rating ECHCG” value ([18]; 250 g ai/ha, scale 0-100) was 0. The “phytotoxicity rating CHEAL” value ([19]; 63 g ai/ha, scale 0-100) was 90, the “phytotoxicity rating CHEAL” value ([19]; 250 g ai/ha, scale 0-100) was 100 and the “phytotoxicity rating SETVI” value ([20]; 63 g ai/ha, scale 0-100) was 0. For the same compound, the “phytotoxicity rating SETVI” value ([20]; 250 g ai/ha, scale 0-100) was 0, the “phytotoxicity rating CORN (crop damage)” value ([21]; 63 g ai/ha) was 0 and the “phytotoxicity rating CORN (crop damage)” value ([21]; 250 g ai/ha) was 0. The “phytotoxicity rating RICE (crop damage)” value ([22]; 63 g ai/ha) was 0 and the “phytotoxicity rating RICE (crop damage)” value ([22]; 250 g ai/ha) was 0.

For `COc1c(Cl)cc(F)c(-n2c(=O)cc(C(F)(F)F)n(C)c2=O)c1NN=C1CCc2ccccc2C1` [15-18], the “Post-emerge Herbicidal Activity CORN (crop damage rating)” value ([1]; 63 g ai/ha) was 20, the “Post-emerge Herbicidal Activity CORN (crop damage rating)” value ([1]; 250 g ai/ha) was 80 and the “Post-emerge Herbicidal Activity RICE (crop damage rating)” value ([2]; 63 g ai/ha) was 30. The “Post-emerge Herbicidal Activity RICE (crop damage rating)” value ([2]; 250 g ai/ha) was 85, the “phytotoxicity rating AMARE” value ([3]; 63 g ai/ha, rating scale 0-100) was 100 and the “phytotoxicity rating AMARE” value [3, 23] was 100. For the same compound, the “Post-emerge Herbicidal Activity IPOHE (phytotoxicity rating)” value ([4]; 63 g ai/ha) was 90, the “Post-emerge Herbicidal Activity IPOHE (phytotoxicity rating)” value ([4]; 250 g ai/ha) was 100 and the “Post-emerge Herbicidal Activity SORHA (phytotoxicity rating)” value ([5]; 63 g ai/ha) was 0. The “Post-emerge Herbicidal Activity SORHA (phytotoxicity rating)” value ([5]; 250 g ai/ha) was 99, the “Post-emerge Herbicidal Activity ABUTH (phytotoxicity rating)” value ([6]; 63 g ai/ha) was 100 and the “Post-emerge Herbicidal Activity ABUTH (phytotoxicity rating)” value ([6]; 250 g ai/ha) was 100. The “Post-emerge Herbicidal Activity CASOB (phytotoxicity rating)” value ([7]; 63 g ai/ha) was 40, the “Post-emerge Herbicidal Activity CASOB (phytotoxicity rating)” value ([7]; 250 g ai/ha) was 100 and the “Post-emerge Herbicidal Activity DIGSA (phytotoxicity rating)” value ([8]; 63 g ai/ha) was 10. The “Post-emerge Herbicidal Activity DIGSA (phytotoxicity rating)” value ([8]; 250 g ai/ha) was 100, the “Post-emerge Herbicidal Activity ECHCG (phytotoxicity rating)” value ([9]; 63 g ai/ha) was 10 and the “Post-emerge Herbicidal Activity ECHCG (phytotoxicity rating)” value ([9]; 250 g ai/ha) was 95. The “Post-emerge Herbicidal Activity CHEAL (phytotoxicity rating)” value ([10]; 63 g ai/ha) was 100, the “Post-emerge Herbicidal Activity CHEAL (phytotoxicity rating)” value ([10]; 250 g ai/ha) was 100 and the “Post-emerge Herbicidal Activity AMARE (phytotoxicity rating)” value ([11]; 63 g ai/ha, rating scale 0-100 (0 no damage, 100 complete death)) was 100. The “Post-emerge Herbicidal Activity AMARE (phytotoxicity rating)” value [11, 23] was 100, the “Post-emerge Herbicidal Activity SETVI (phytotoxicity rating)” value ([12]; 63 g ai/ha) was 20 and the “Post-emerge Herbicidal Activity SETVI (phytotoxicity rating)” value ([12]; 250 g ai/ha) was 80. For the same compound, the “phytotoxicity rating IPOHE” value ([13]; 63 g ai/ha, rating scale 0-100) was 90, the “phytotoxicity rating IPOHE” value [13, 23] was 100 and the “phytotoxicity rating SORHA” value ([14]; 63 g ai/ha, rating scale 0-100) was 75. For the same compound, the “phytotoxicity rating SORHA” value [14, 23] was 100, the “phytotoxicity rating ABUTH” value ([15]; 63 g ai/ha, rating scale 0-100) was 100 and the “phytotoxicity rating ABUTH” value [15, 23] was 100. For the same compound, the “phytotoxicity rating CASOB” value ([16]; 63 g ai/ha, rating scale 0-100) was 100, the “phytotoxicity rating CASOB” value [16, 23] was 100 and the “phytotoxicity rating DIGSA” value ([17]; 63 g ai/ha, rating scale 0-100) was 100. The “phytotoxicity rating DIGSA” value [17, 23] was 100, the “phytotoxicity rating ECHCG” value ([18]; 63 g ai/ha, rating scale 0-100) was 75 and the “phytotoxicity rating ECHCG” value [18, 23] was 100. For the same compound, the “phytotoxicity rating CHEAL” value ([19]; 63 g ai/ha, rating scale 0-100) was 100, the “phytotoxicity rating CHEAL” value [19, 23] was 100 and the “phytotoxicity rating SETVI” value ([20]; 63 g ai/ha, rating scale 0-100) was 95. The “phytotoxicity rating SETVI” value [20, 23] was 100, the “phytotoxicity rating CORN” value ([21]; 63 g ai/ha) was 80 and the “phytotoxicity rating CORN” value ([21]; 250 g ai/ha) was 95. For the same compound, the “phytotoxicity rating RICE” value ([22]; 63 g ai/ha) was 90 and the “phytotoxicity rating RICE” value ([22]; 250 g ai/ha) was 99.
